Source: US20260345555A1, “Compositions and Methods for Protecting Salivary Glands from Off-Target Radiation Damage” (University of Rochester, priority 2022, published 2026)
Counter-ions that a name gives are not always drawn.

System: Reduced glutathione in salivary gland cell clusters (SGm)
Assay: Glutathione assay in salivary gland tissue chip, 4 days post-radiation (15 Gy); also first screen of Selleck library at 100 μM
Type: cell-based, mouse
Conditions: for Glutathione normalized mean intensity: first screen of Selleck library at 100 μM, 15 Gy, 4 days post-radiation
Description: A salivary gland tissue chip was leveraged for high-content drug screening to identify novel radioprotective compounds (Song Y et al., Commun Biol., 2021, 4). The chip platform consists of an array of near-spherical microbubble (MB) cavities formed in poly(dimethylsiloxane) (PDMS). Each chip, containing ~50 MBs, affixed within wells of a 96-well plate (FIG. 1C). Primary salivary gland cell clusters (FIG. 1A), suspended in a poly(ethylene glycol) (PEG) hydrogel precursor and MMP-degradable peptide crosslinker solution together with the photoinitiator LAP, were applied to the chip allowing the clusters to deposit into the MBs (FIG. 1D). In situ polymerization of the hydrogel was achieved using long-wave, low intensity UV light. Over time, the cell clusters aggregate and proliferate to form SGm (FIG. 1C).
The glutathione assay was used to measure glutathione levels at various time points post-radiation to determine the optimal time point for detecting differences between 0 Gy and 15 Gy. Based on the data, the greatest signal separation was measured at 4 days post-irradiation (FIG. 9). This timepoint is similar to previous reports on decreases in glutathione post-radiation and was used for all experiments moving forward (Meeks L et al., Physiological Genomics, 2021, 53: 85-98).
The dose response to WR-1065 was examined to determine effective concentrations of WR-1065 to prevent the reduction of glutathione levels post-radiation. A SGm tissue chip was cultured for 4 days to allow spheres to form. The chip was then treated with WR-1065 30 minutes before and during radiation, followed by drug wash out with media 30 minutes post-radiation (FIG. 2A). This dosing scheme is consistent with the use of Amifostine clinically and with previous work. The glutathione assay was performed at 4 days post-radiation (FIG. 2A). […] Moreover, it is clinically relevant as 15-30 minutes before radiation, patients are administered Amifostine intravenously at 200 mg/m (Escobar A et al., IntechOpen, 2019, pp. 15-37; Eisbruch A, J Clin Oncol, 2011, 29: 119-121; Bardet, E. et al. Semin Oncol, 2002, 29, 57-60). Assuming an average adult body surface area of 17,000 cm^2 and a blood volume of 1.35 gallons (5.1 liters), Amifostine is administered at 300 μM (Mosteller, R. D. N Engl J Med 317, 1098 (1987)).
The glutathione and senescence assays were used to screen a library of FDA-approved drugs (Selleck Chemicals) at 100 μM. Drugs were first screened using the glutathione assay according to the timeline depicted in FIG. 2A. Any compound resulting in statistically similar glutathione levels compared to 0 Gy control was considered a hit (FIG. 4, grey circles). Hits with the glutathione assay were then tested with the senescence assay and considered a “double hit” if senescence levels were statistically similar to levels at 0 Gy (FIG. 4, black circles). […] While this hit rate is higher than many other drug screening reports (0.1-0.3%), this may be due to the statistical rigor afforded by the tissue chip format (Blanchard, C et al., Antimicrob Agents Chemother 2016, 60, 862-872; Colquhoun, J. M et al., Antibiotics (Basel) 2019, 8, 48). Additionally, phenotypic screens generally have higher hit rates than target-based screens (>1%) (Moffat, J. G et al., Nature Reviews Drug Discovery 2017, 16, 531-543; Rottman, M et al., Science 2010, 329, 1175-1180).
Mice were euthanized and the submandibular glands (SMG) were removed and chopped with a razor blade for 5 min. The tissue was then incubated in Hank's buffered salt solution (HBSS) containing 15 mM HEPES, 50 U/mL collagenase type II (Thermo Fischer 17101015), and 100 U/mL hyaluronidase (Sigma Aldrich H3506) at 37 °C for 30 min. Cells were centrifuged, then resuspended in HBSS with 15 mM HEPES and passed through 100 μm and 20 μm mesh filters to isolate clusters between 20-100 μm. The digestion protocol produces cell cluster sizes evenly distributed between 20 to 100 μm (Song, Y et al., Advanced Healthcare Materials). […]

Structure (SMILES)	Glutathione normalized mean intensity	Glutathione: Normalized mean intensity
CC(C)n1c(/C=C/[C@H](O)C[C@H](O)CC(=O)O)c(-c2ccc(F)cc2)c2ccccc21 (racemic) [Fluvastatin sodium (Lescol)]	0.5791	–
NC(=O)c1ncn([C@@H]2O[C@H](CO)[C@@H](O)[C@H]2O)c1N [Acadesine]	0.3637	–
C=CCc1cc(OC)c(O)c(C(=O)NCCO)c1 [Alibendol]	0.7165	–
COc1ccc(CC2c3cc(OC)c(OC)cc3CC[N+]2(C)CCC(=O)OCCCCCOC(=O)CC[N+]2(C)CCc3cc(OC)c(OC)cc3C2Cc2ccc(OC)c(OC)c2)cc1OC (centres unmarked) [Atracurium besylate]	0.6611	–
COc1ccc(C(=O)CC(=O)c2ccc(C(C)(C)C)cc2)cc1 [Avobenzone (Parsol 1789)]	0.5309	–
Nc1ncn([C@@H]2O[C@H](CO)[C@@H](O)[C@H]2O)c(=O)n1 [Azacitidine (Vidaza)]	0.5322	–
CC[C@H]1OC(=O)[C@H](C)[C@@H](O[C@H]2C[C@@](C)(OC)[C@@H](O)[C@H](C)O2)[C@H](C)[C@@H](O[C@@H]2O[C@H](C)C[C@H](N(C)C)[C@H]2O)[C@](C)(O)C[C@@H](C)CN(C)[C@H](C)[C@@H](O)[C@]1(C)O [Azithromycin (Zithromax)]	0.8765	–
c1ccc(-c2ccc(C(c3ccccc3)n3ccnc3)cc2)cc1 (centres unmarked) [Bifonazole]	0.6115	–
Clc1ccc(CCC(Cn2ccnc2)Sc2c(Cl)cccc2Cl)cc1 (centres unmarked) [Butoconazole nitrate]	0.6197	–
C[C@@](Cc1ccc(O)c(O)c1)(NN)C(=O)O [Carbidopa]	0.5325	–
Oc1c(Cl)cc(Cl)c2cccnc12 [Chloroxine]	0.1604	–
CN=C(NC#N)NCCSCc1nc[nH]c1C [Cimetidine (Tagamet)]	0.9597	–
O=P1(N(CCCl)CCCl)NCCCO1 (centres unmarked) [Clafen (Cyclophosphamide)]	–	0.5778
CN(C)c1ccc(C(=C2C=CC(=[N+](C)C)C=C2)c2ccc(N(C)C)cc2)cc1 [Crystal violet]	0.1262	–
O=c1c(-c2ccc(O)cc2)coc2cc(O)ccc12 [Daidzein]	0.5394	–
CN(C)[C@@H](CCOc1cccc2ccccc12)c1ccccc1 [Dapoxetine hydrochloride (Priligy)]	0.7539	–
CC(=O)OCC(=O)[C@@]12N=C(C)O[C@@H]1C[C@H]1[C@@H]3CCC4=CC(=O)C=C[C@]4(C)[C@H]3[C@@H](O)C[C@@]12C [Deflazacort (Calcort)]	0.5114	–
O=C(O)Cc1ccccc1Nc1c(Cl)cccc1Cl [Diclofenac]	0.334	–
COc1ccc([C@@H]2Sc3ccccc3N(CCN(C)C)C(=O)[C@@H]2OC(C)=O)cc1 [Diltiazem HCL (Tiazac)]	0.7425	–
CN(C)CCOC(c1ccccc1)c1ccccc1 [Diphenhydramine HCl (Benadryl)]	0.6149	–
OCCN(CCO)c1nc(N2CCCCC2)c2nc(N(CCO)CCO)nc(N3CCCCC3)c2n1 [Dipyridamole (Persantine)]	0.5847	–
O=C([O-])c1cc(=O)c2c(OCC(O)COc3cccc4oc(C(=O)[O-])cc(=O)c34)cccc2o1.[Na+].[Na+] [Disodium Cromoglycate]	0.6798	–
CCOC(=O)[C@H](CCc1ccccc1)N[C@@H](C)C(=O)N1CCC[C@H]1C(=O)O [Enalapril maleate (Vasotec)]	0.8307	–
O=C(O)CSCC(=O)NC1CCSC1=O (centres unmarked) [Erdosteine]	0.5728	–
CCc1cc(C(N)=S)ccn1 [Ethionamide]	0.7451	–
CC(C)OC(=O)C(C)(C)Oc1ccc(C(=O)c2ccc(Cl)cc2)cc1 [Fenofibrate (Tricor, Trilipix)]	0.5348	–
CC(C)C(=O)Nc1ccc([N+](=O)[O-])c(C(F)(F)F)c1 [Flutamide (Eulexin)]	0.6406	–

Structure (SMILES)	Glutathione normalized mean intensity	Glutathione: Normalized mean intensity
Nc1nc(O)c2ncn(COC(CO)CO)c2n1 [Ganciclovir]	0.5803	–
O=C(CCCN1CCC(O)(c2ccc(Cl)cc2)CC1)c1ccc(F)cc1 [Haloperidol (Haldol)]	0.6675	–
NC(=O)NO [Hydroxyurea (Cytodrox)]	0.4236	–
O=c1[nH]c(=O)n([C@H]2C[C@H](O)[C@@H](CO)O2)cc1I [Idoxuridine]	0.7701	–
O=P1(NCCCl)OCCCN1CCCl (centres unmarked) [Ifosfamide]	–	0.7162
Nc1nc(N)nc(-c2cc(Cl)ccc2Cl)n1 [Irsogladine]	0.613	–
NNC(=O)c1ccncc1 [Isoniazid (Tubizid)]	0.3683	–
Cc1c(OCC(F)(F)F)ccnc1C[S+]([O-])c1nc2ccccc2[nH]1 (centres unmarked) [Lansoprazole]	–	0.6174
c1ccc([C@H]2CN3CCSC3=N2)cc1 [Levamisole Hydrochloride (Ergamisol)]	0.8181	–
C[C@H]1COc2c(N3CCN(C)CC3)c(F)cc3c(=O)c(C(=O)O)cn1c23 [Levofloxacin (Levaquin)]	0.6541	–
CC1=CC(=O)c2ccccc2C1=O [Menadione]	0.4363	–
CN(C)C(=N)N=C(N)N [Metformin hydrochloride (Glucophage)]	0.6991	–
COc1c2occc2cc2ccc(=O)oc12 [Methoxsalen (Oxsoralen)]	0.6397	–
COCCc1ccc(OCC(O)CNC(C)C)cc1 (centres unmarked) [Metoprolol tartrate]	0.829	–
Cc1ncc([N+](=O)[O-])n1CCO [Metronidazole (Flagyl)]	0.5627	–
Cc1cccc(C)c1NC(=O)CN1CCCC1=O [Nefiracetam (Translon)]	0.6824	–
NC(=O)c1cccnc1 [Nicotinamide (Niacinamide)]	0.6872	–
CC(=O)Oc1ccccc1C(=O)Nc1ncc([N+](=O)[O-])s1 [Nitazoxanide (Alinia, Annita)]	–	0.5996
CNC(=C[N+](=O)[O-])NCCSCc1csc(CN(C)C)n1 [Nizatidine]	0.5754	–
C[C@@H]1[C@H](O)[C@@H](C)/C=C/C=C/CC/C=C/C=C/C=C/C=C/C(O[C@H]2O[C@H](C)[C@@H](O)[C@H](N)[C@@H]2O)CC2O[C@](O)(CC(O)C(O)CCC(O)CC(O)CC(O)CC(=O)O[C@H]1C)CC(O)C2C(=O)O (some centres unmarked) [Nystatin (Mycostatin)]	0.3498	–
COC(=O)Nc1nc2ccc([S+]([O-])c3ccccc3)cc2[nH]1 (centres unmarked) [Oxfendazole]	0.6	–
CCCOc1ccc2nc(NC(=O)OC)[nH]c2c1 [Oxibendazole]	0.747	–
CC(C)(S)[C@@H](N)C(=O)O [Penicillamine (Cuprimine)]	0.7681	–
O=C1c2ccccc2C(=O)C1c1ccccc1 [Phenindione (Rectadione)]	0.6802	–
[I-].[K+] [Potassium iodide]	0.386	–
CC(C(=O)O)c1ccc2c(c1)Cc1cccnc1O2 (centres unmarked) [Pranoprofen]	0.7582	–
